≈ marks a conversion by molar mass, not a printed value.
Columns and labels:
[1] = Inhibition of recombinant mouse GALK1 using ATP as substrate incubated for 1 hr and measured by Kinase-Glo assay
[2] = Stability of compound in rat microsomes assessed as half-life; format: ADME, Microsome
[3] = Permeability of compound by PAMPA assay; format: ADME; settings: for Papp: read-out: permeability
[4] = Kinetic aqueous solubility of the compound; format: physicochemical; settings: buffer; read-out: Kinetic_solubility

| IC50 ([1]; read-out: IC50) [µM] | half-life [2] [min] | Papp [3] [×10⁻⁶ cm/s] | solubility kinetic [4] [µg/mL] | permeability [3] | IC50 [1] | SMILES |
| --- | --- | --- | --- | --- | --- | --- |
| 6.85 | > 30 | < 1 | 60 (≈ 119 µM) |  |  | CC1=C(C(=O)Nc2cccc(C(=O)O)n2)C(c2ccccc2Cl)N=C(Nc2nc3ccccc3o2)N1 (centres undefined) |
| 10.9 | > 30 | < 1.5 | < 1 |  |  | CC1=C(C(=O)Nc2nnc(-c3cccnc3)s2)C(c2ccccc2Cl)N=C(Nc2nc3cc(C)ccc3o2)N1 (centres undefined) |
| 19.3 | > 30 | < 1 | > 51 |  |  | CC1=C(C(=O)Nc2cc(C(=O)O)ccn2)C(c2ccc(C)cc2Cl)N=C(Nc2nc3ncccc3o2)N1 (centres undefined) |
| 3.85 | > 30 | < 1.7 | 2.4 (≈ 4 µM) |  |  | CC1=C(C(=O)Nc2cc(C(=O)O)ccn2)C(c2ccc(Br)cc2Cl)N=C(Nc2nc3ccc(F)cc3o2)N1 (centres undefined) |
| 6.11 | > 30 | < 4.9 | < 1 |  |  | CC1=C(C(=O)Nc2nncs2)C(c2ccc(Cl)cc2Cl)N=C(Nc2nc3ccccc3o2)N1 (centres undefined) |
| 21.7 | > 30 | < 1 | > 78 |  |  | CC1=C(C(=O)Nc2cc(C(=O)O)ccn2)[C@@H](c2ccc(C)cc2Cl)N=C(Nc2nc3cccc(N)c3o2)N1 |
| 86.3 | 24.3 | < 7.4 |  |  |  | COC(=O)c1ccnc(NC(=O)C2=C(C)NC(Nc3nc4ccc(F)cc4o3)=N[C@@H]2c2ccccc2Cl)c1 |
| 4.32 | 30.9 | < 21.9 |  |  |  | COC(=O)c1ccnc(NC(=O)C2=C(C)NC(Nc3nc4ccc(F)cc4o3)=N[C@H]2c2ccccc2Cl)c1 |
| 3.06 | 18.7 |  | 1.56 (≈ 2.64 µM) |  |  | CC1=C(C(=O)NCc2cnn(CC(F)(F)F)c2)C(c2ccc(C)cc2Cl)N=C(Nc2nc3ccc(F)c(N)c3o2)N1 (centres undefined) |
| 19.3 | > 30 |  | 2.4 (≈ 4.62 µM) |  |  | CC1=C(C(=O)Nc2cc(C(N)=O)ccn2)C(c2ccccc2Cl)N=C(Nc2nc3ccc(F)cc3o2)N1 (centres undefined) |
| 19.3 | > 30 |  | < 1 |  |  | CC1=C(C(=O)Nc2ccc(CO)cn2)C(c2ccccc2Cl)N=C(Nc2nc3ccc(F)cc3o2)N1 (centres undefined) |
| 6.85 | 29.6 |  | 49.6 (≈ 97.5 µM) |  |  | CC1=C(C(=O)NCc2cnn(C)c2)C(c2ccc(F)cc2Cl)N=C(Nc2nc3cccc(N)c3o2)N1 (centres undefined) |
| 15.3 | 11.7 |  | 4.6 (≈ 8.66 µM) |  |  | CC1=C(C(=O)Nc2cc(N(C)C)ccn2)C(c2ccc(C)cc2Cl)N=C(Nc2nc3cccc(N)c3o2)N1 (centres undefined) |
| 3.85 | > 30 |  | > 89 |  |  | CC1=C(C(=O)Nc2cc(C(=O)O)ccn2)C(c2ccc(N3CCOCC3)cc2Cl)N=C(Nc2nc3ccc(F)cc3o2)N1 (centres undefined) |
| 5.44 | > 30 |  | < 1 |  |  | COc1ccc(C2N=C(Nc3nc4ccccc4o3)NC(C)=C2C(=O)Nc2nncs2)c(Cl)c1 (centres undefined) |
|  | > 30 | < 4.9 | < 1 |  |  | CC1=C(C(=O)Nc2cc(C(=O)O)ccn2)C(c2ccc(-c3ccccc3)cc2Cl)N=C(Nc2nc3ccc(F)cc3o2)N1 (centres undefined) |
| 4.32 | 14.4 |  | < 1 |  |  | CC1=C(C(=O)NCc2cnn(C(C)(C)C)c2)C(c2ccc(C)cc2Cl)N=C(Nc2nc3ccc(F)c(N)c3o2)N1 (centres undefined) |
| 5.44 | 6.73 |  | < 1 |  |  | CC1=C(C(=O)NCc2cnn(Cc3ccccc3)c2)C(c2ccc(C)cc2Cl)N=C(Nc2nc3cccc(N)c3o2)N1 (centres undefined) |
| 10.9 | > 30 |  | < 1 |  |  | CNC(=O)c1ccnc(NC(=O)C2=C(C)NC(Nc3nc4ccccc4o3)=NC2c2ccccc2Cl)c1 (centres undefined) |
| 3.43 | 2.99 |  | < 1 |  |  | CC1=C(C(=O)NCc2cnn(C)c2C)C(c2ccc(C)cc2Cl)N=C(Nc2nc3ccc(F)cc3o2)N1 (centres undefined) |
| 10.9 | > 30 |  | < 1 |  |  | CC1=C(C(=O)Nc2nncs2)C(c2cc(Cl)ccc2Cl)N=C(Nc2nc3ccccc3o2)N1 (centres undefined) |
| 12.2 | > 30 |  | < 1 |  |  | COC(=O)c1cccc(NC(=O)C2=C(C)NC(Nc3nc4ccccc4o3)=NC2c2ccccc2Cl)n1 (centres undefined) |
| 10.9 | 8.62 |  | < 1 |  |  | CCn1cc(CNC(=O)C2=C(C)NC(Nc3nc4ccc(F)c(N)c4o3)=N[C@@H]2c2ccc(C)cc2Cl)cn1 |
|  | 3.66 |  | 4.8 (≈ 9.78 µM) |  | Not Active | CC1=C(C(=O)NCc2cnn(C)c2)C(c2ccc(C)cc2Cl)N=C(Nc2nc3cccnc3o2)N1 (centres undefined) |
| 1.72 | > 30 |  | > 78 |  |  | CC1=C(C(=O)Nc2cc(C(=O)O)ccn2)C(c2ccc(C)cc2Cl)N=C(Nc2nc3cccc(N)c3o2)N1 (racemic) |
| 1.09 | 7.04 |  | < 1 |  |  | CCn1ncc(CNC(=O)C2=C(C)NC(Nc3nc4ccc(F)c(N)c4o3)=NC2c2ccc(C)cc2Cl)c1F (centres undefined) |
| 2.17 | 3.55 |  | 1.53 (≈ 2.69 µM) |  |  | CCn1nc(C)c(CNC(=O)C2=C(C)NC(Nc3nc4ccc(F)c(N)c4o3)=NC2c2ccc(C)cc2Cl)c1F (centres undefined) |
| 12.2 | > 30 |  | > 83 |  |  | CC1=C(C(=O)Nc2cc(C(=O)O)ccn2)C(c2cc(C(=O)O)ccc2Cl)N=C(Nc2nc3ccc(F)cc3o2)N1 (centres undefined) |
|  | 30.8 |  | < 1 |  | Not Active | CC1=C(C(=O)Nc2ccc(Cl)cn2)C(c2ccccc2Cl)N=C(Nc2nc3ccccc3o2)N1 (centres undefined) |
| 3.43 | > 30 |  | > 72 |  |  | CC1=C(C(=O)NCc2cnn(C)c2)C(c2ccccc2Cl)N=C(Nc2nc3cccc(N)c3o2)N1 (centres undefined) |

Continued, compound first:

| SMILES | IC50 ([1]; read-out: IC50) [µM] | half-life [2] [min] | Papp [3] [×10⁻⁶ cm/s] | solubility kinetic [4] [µg/mL] | permeability [3] | IC50 [1] |
| --- | --- | --- | --- | --- | --- | --- |
| CC1=C(C(=O)NCc2ccc(C(=O)O)cc2)C(c2ccccc2Cl)N=C(Nc2nc3ccccc3o2)N1 (centres undefined) | 10.9 | > 30 | < 1 | 47 (≈ 91.1 µM) |  |  |
| CC1=C(C(=O)NCc2ccccn2)C(c2ccccc2Cl)N=C(Nc2nc3ccccc3o2)N1 (centres undefined) | 19.3 | 6.56 |  | 1.8 (≈ 3.81 µM) | 1424 10^-6 cm/s |  |
| CC1=C(C(=O)Nc2ccc(C(N)=O)cc2)C(c2ccccc2Cl)N=C(Nc2nc3ccccc3o2)N1 (centres undefined) | 6.85 | > 30 | < 6.3 | < 1 |  |  |
| CC1=C(C(=O)NCc2ccccc2O)C(c2ccccc2Cl)N=C(Nc2nc3ccccc3o2)N1 (centres undefined) | 10.9 | 5.19 | < 19.3 |  |  |  |
| CC1=C(C(=O)Nc2ccc(O)cc2)C(c2ccccc2Cl)N=C(Nc2nc3ccccc3o2)N1 (centres undefined) | 9.68 | > 30 | < 14.5 |  |  |  |
| CNCCNC(=O)C1=C(C)NC(Nc2nc3ccc(F)cc3o2)=NC1c1ccccc1Cl (centres undefined) | 6.11 |  | > 30 | > 67 |  |  |
| COC(=O)c1cccc(CNC(=O)C2=C(C)NC(Nc3nc4ccccc4o3)=NC2c2ccccc2Cl)c1 (centres undefined) | 7.69 | 3.42 |  | < 1 |  |  |
| CC1=C(C(=O)Nc2ccc(CO)nc2)C(c2ccccc2Cl)N=C(Nc2nc3ccccc3o2)N1 (centres undefined) | 7.69 | > 30 |  | < 1 |  |  |
| CN(C)C(=O)C1CC(=O)C2=C(C1)NC(Nc1nc3ccccc3o1)=NC2c1ccccc1Cl (centres undefined) | 4.32 | 20.8 |  | 10.8 (≈ 23.4 µM) |  |  |
| CC1=C(C(=O)Nc2nncs2)C(c2ccccc2Br)N=C(Nc2nc3ccccc3o2)N1 (centres undefined) | 9.68 | > 30 |  | < 1 |  |  |
| CC(C)C1=C(C(=O)Nc2nncs2)C(c2ccccc2Cl)N=C(Nc2nc3ccccc3o2)N1 (centres undefined) | 15.3 | > 30 |  | < 1 |  |  |
| CC1=C(C(=O)Nc2nc(CO)cs2)C(c2ccccc2Cl)N=C(Nc2nc3ccccc3o2)N1 (centres undefined) | 19.3 | > 30 |  | < 1 |  |  |
| CC1=C(C(=O)Nc2cc(C(=O)O)ccc2F)C(c2ccccc2Cl)N=C(Nc2nc3ccc(F)cc3o2)N1 (centres undefined) | 6.85 | > 30 |  | 35.7 (≈ 66.4 µM) |  |  |
| CC1=C(C(=O)NCc2ccc(F)cc2)C(c2ccccc2Cl)N=C(Nc2nc3ccccc3o2)N1 (centres undefined) |  | 11.3 |  | < 1 |  | Not Active |
| CC1=C(C(=O)Nc2ccccc2Cl)C(c2ccccc2Cl)N=C(Nc2nc3ccccc3o2)N1 (centres undefined) |  | 28.7 |  | < 1 |  | Not Active |
| COc1ccc(C(=O)O)cc1NC(=O)C1=C(C)NC(Nc2nc3ccc(F)cc3o2)=NC1c1ccccc1Cl (centres undefined) | 12.2 | > 30 |  | 53.3 (≈ 96.9 µM) |  |  |
| CC1=C(C(=O)Nc2nncs2)C(c2cccnc2Br)N=C(Nc2nc3ccccc3o2)N1 (centres undefined) | 19.3 | > 30 |  | 11.1 (≈ 21.7 µM) |  |  |
| CC1=C(C(=O)Nc2cccnc2)C(c2ccccc2Cl)N=C(Nc2nc3ccccc3o2)N1 (centres undefined) | 12.2 | 20 |  | < 1 |  |  |
| CC1=C(C(=O)NCc2ccc(CO)cc2)C(c2ccccc2Cl)N=C(Nc2nc3ccccc3o2)N1 (centres undefined) | 15.3 | 13.8 |  | < 1 |  |  |
| CC1=C(C(=O)Nc2nncs2)C(c2n[nH]cc2Br)N=C(Nc2nc3ccccc3o2)N1 (centres undefined) | 19.3 | > 30 |  | 11.4 (≈ 22.8 µM) |  |  |
| CCn1cc(CNC(=O)C2=C(C)NC(Nc3nc4ccc(F)c(N)c4o3)=NC2c2ccccc2Cl)cn1 (centres undefined) | 2.17 | 17.7 |  | 23.9 (≈ 45.6 µM) |  |  |
| CC1=C(C(=O)Nc2ccc(F)cc2)C(c2ccccc2Cl)N=C(Nc2nc3ccccc3o2)N1 (centres undefined) | 12.2 | > 30 |  | < 1 |  |  |
| CC1=C(C(=O)Nc2nnc(C(F)(F)F)s2)C(c2ccccc2Cl)N=C(Nc2nc3ccccc3o2)N1 (centres undefined) | 21.7 | > 30 |  | < 1 |  |  |
| CC1=C(C(=O)Nc2cc(C(=O)O)ccc2F)C(c2ccccc2Cl)N=C(Nc2nc3ccccc3o2)N1 (centres undefined) | 10.9 | > 30 |  | 25.4 (≈ 48.9 µM) |  |  |
| CC1=C(C(=O)NCc2cccc(CO)c2)C(c2ccccc2Cl)N=C(Nc2nc3ccccc3o2)N1 (centres undefined) | 12.2 | 6.57 |  | < 1 |  |  |

Reference: ChEMBL document CHEMBL5050861 (2021)
